In paper PMC13357423 (Frontiers in Microbiology, 2026):
In brackets after ≈: the same amount, converted by molar mass. Entries after “also recorded” stand apart in the source; their conditions may differ. Like-named read-outs stand apart in the source and are kept apart here.

How the values were obtained:
[1] = tested on: M. tuberculosis; set-up: method as in Lounis et al. (2016); conditions: polypropylene plates in comparison with polystyrene; ref Lounis et al. (2016); cited from earlier work
[2] = tested on: Mtb H37Rv; assay: microbe, parasite or virus in culture; assay type: cell-based; conditions: Mycobacterium tuberculosis, read-out: MIC BDQ values in six carbon sources
[3] = tested on: Mtb Rv0678 RAVs; set-up: method as in Sonnenkalb et al., 2023; Villellas et al., 2017; conditions: Rv0678 RAVs in baseline isolates of MDR-TB patients; ref Sonnenkalb et al., 2023; Villellas et al., 2017; cited from earlier work
[4] = Effect of tyloxapol on TBAJ-587 recovery in ST broth without bacteria; assay type: physicochemical; conditions: ST broth with vs without tyloxapol, no bacteria, polystyrene flasks, 28 days
Protocol: A low (0.16 mg/L) and a high concentration (1.6 mg/L) were tested and samples taken and quantified at 0, 1, 10 and 28 days after compound addition. Parallel conditions with propranolol (2 μM and 0.2 μm) were included as a drug control; two time-points were sampled for quantification at days 0 and 28 after compound addition. All 648 samples were measured in technical duplicates and verapamil was used as internal standard.

[5] = tested on: regrowth TKA isolates (Mtb H37Rv); assay: microbe, parasite or virus in culture; assay type: cell-based, Mycobacterium tuberculosis; conditions: for MIC: Mycobacterium tuberculosis
[6] = tested on: Mtb H37Rv; assay: Dose response time kill assays (TKA), CFU enumeration; assay type: cell-based, Mycobacterium tuberculosis
[7] = concentrations equal or higher than 5x MIC

Row | Compound | increase in the MIC [1] [fold] | MIC [2] [µg/mL] | increase in MIC [3] | effect of 0.05% tyloxapol on recovery [4] | MIC increase compared to the wild-type baseline [5] [fold] | MIC ([5]; H37RV) [µg/mL] | MIC ([5]; read-out: MIC values for TBAJ-587, all regrowth isolates) [µg/mL] | effect in TKA ([6]; 1x MIC and 2x MIC) | bacterial regrowth ([6]; 1x MIC and 2x MIC, day 28) | bacterial regrowth after 28 days of treatment [6, 7] | time to cleared cultures (bacterial counts under the limit of quantification) [6, 7] [days] | effect in TKA ([6]; concentrations equal to and above 5x MIC)
1 | COc1nc2ccc(Br)cc2cc1[C@@H](c1ccccc1)[C@@](O)(CCN(C)C)c1cccc2ccccc12 [BDQ, bedaquiline] | 4 | 0.063 to 0.25 (≈ 0.113 to 0.45 µM) | 2–8 fold |  |  |  |  |  |  |  |  | 
2 | CC(C)NCC(O)COc1cccc2ccccc12 (stereo not shown) [Propranolol, propranolol, reference compound] |  |  |  | did not affect its recovery |  |  |  |  |  |  |  | 
3 | COc1cc([C@](O)(CCN(C)C)[C@@H](c2cc3cc(Br)ccc3nc2OC)c2cccc(OC)c2F)cc(OC)n1 [TBAJ-587] |  |  |  | higher TBAJ-587 recovery | 4 | 0.125 (≈ 0.203 µM) | 0.125 to 0.25 (≈ 0.203 to 0.407 µM) | bacteriostatic effect | resumed growth after 28 days; also recorded: bacterial regrowth by day 28 | without bacterial regrowth | ≤ 7 | bactericidal effect
